Where a name gives a salt, the structure may show the parent alone.
Experiments:
[1] = biological target: T1, bovine beta-2 adrenoceptor (Bos taurus, UniProt Q28044); assay: cAMP assay in CHO cells transfected with the bovine beta-2 adrenoceptor; format: cell-based; conditions: cAMP (DiscoveRx Hit Hunter cAMP II) in CHO cells transfected with bovine beta-2 adrenoceptor, 30 minutes with compound, 0.5 mM IBMX
T1 construct: expressed in transfected cells; host or cells: CHO cells
Procedure: (§1) CHO cells transfected with the bovine or porcine beta-2 adrenceptors were maintained in culture in DMEM/HAMS F12+10% FBS+2 mM glutamine+500 μg/ml geneticin (for the porcine receptor the medium was supplement with 1.5 mM HEPES) at 37° C. with a 5% CO2 atmosphere.
(§2) Cells were plated into 96 well viewplates in medium and incubated overnight at 37° C. with a 5% CO2 atmosphere. The cells were pre-incubated with 0.5 mM IBMX in PBS for 30 minutes prior to incubation with increasing concentrations of experimental compound (5×10^−12 to 10^−5 M) for 30 minutes at 37° C. with a 5% CO2 atmosphere. At the end of the incubation time the compound was removed and the cells assayed for cAMP using the DiscoveRx Hit Hunter cAMP II™ assay kit.
(§3) Duplicate samples were run for each experimental compound and the data generated was analysed using EC50 analysis software in Graphpad Prism.

[2] = biological target: T2, porcine beta-2 adrenoceptor (Sus scrofa, UniProt Q28997); assay: cAMP assay in CHO cells transfected with the porcine beta-2 adrenoceptor; format: cell-based; conditions: cAMP (DiscoveRx Hit Hunter cAMP II) in CHO cells transfected with porcine beta-2 adrenoceptor, 30 minutes with compound, 0.5 mM IBMX
T2 construct: expressed in transfected cells; host or cells: CHO cells
T2 sequence (Q28997 whole entry): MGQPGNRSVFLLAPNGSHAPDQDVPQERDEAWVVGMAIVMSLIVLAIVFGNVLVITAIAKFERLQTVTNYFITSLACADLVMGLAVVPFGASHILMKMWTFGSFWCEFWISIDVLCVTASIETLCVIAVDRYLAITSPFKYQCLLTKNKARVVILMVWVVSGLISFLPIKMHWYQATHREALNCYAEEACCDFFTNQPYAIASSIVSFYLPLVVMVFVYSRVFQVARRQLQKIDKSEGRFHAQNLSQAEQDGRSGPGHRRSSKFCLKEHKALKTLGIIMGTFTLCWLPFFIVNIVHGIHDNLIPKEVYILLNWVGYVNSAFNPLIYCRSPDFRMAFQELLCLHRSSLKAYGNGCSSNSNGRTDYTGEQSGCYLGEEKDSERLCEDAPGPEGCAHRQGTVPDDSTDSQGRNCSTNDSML
Procedure: as §1, §2, §3

T1 sequence (Q28044 whole entry): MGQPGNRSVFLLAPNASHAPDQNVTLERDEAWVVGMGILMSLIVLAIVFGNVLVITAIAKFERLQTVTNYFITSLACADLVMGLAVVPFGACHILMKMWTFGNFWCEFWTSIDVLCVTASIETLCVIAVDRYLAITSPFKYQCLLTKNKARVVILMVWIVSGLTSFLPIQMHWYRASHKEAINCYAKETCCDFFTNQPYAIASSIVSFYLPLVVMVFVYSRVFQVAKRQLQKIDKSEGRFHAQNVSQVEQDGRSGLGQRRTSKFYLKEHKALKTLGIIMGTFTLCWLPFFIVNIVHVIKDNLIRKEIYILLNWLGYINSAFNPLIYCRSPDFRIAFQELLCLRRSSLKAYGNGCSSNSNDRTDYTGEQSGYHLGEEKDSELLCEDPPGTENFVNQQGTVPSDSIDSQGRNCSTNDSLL

| EC50 [1] [nM] | EC50 [2] [nM] | Structure (SMILES) |
| --- | --- | --- |
| 13.1 | 2.9 | CC(CCc1ccc(O)cc1)N[C@@H]1CCn2c(=O)[nH]c3cccc(c32)[C@H]1O (single isomer, unassigned) [Example 2c, 7-Hydroxy-6-{[3-(4-hydroxyphenyl)-1-methylpropyl]amino}-4,5,6,7-tetrahydroimidazo[4,5,1-jk][1]benzazepin-2(1H)-on] |
| 179 | 34.3 | CC(CCc1ccccc1)N[C@@H]1CCn2c(=O)[nH]c3cccc(c32)[C@H]1O (single isomer, unassigned) [Example 9b, 7-Hydroxy-6-[(1-methyl-3-phenylpropyl)amino]-4,5,6,7-tetrahydroimidazo[4,5,1-jk][1]benzazepin-2(1H)-one] |
| 13.3 | 6.6 | CC(C=Cc1cccc(O)c1)NC1CCn2c(=O)[nH]c3cccc(c32)C1O (stereo not shown) [Example 41, 7-Hydroxy-6-{[3-(3-hydroxyphenyl)-1-methylprop-2-en-1-yl]amino}-4,5,6,7-tetrahydroimidazo[4,5,1-jk][1]benzazepin-2(1H)-one] |
| 7.7 | 38.4 | CC(CCc1ccc(C(=O)NCC(F)(F)F)cc1)N[C@@H]1CCn2c(=O)[nH]c3cccc(c32)[C@H]1O (single isomer, unassigned) [Example 52, 4-[-3-{[7-Hydroxy-2-oxo-1,2,4,5,6,7-hexahydroimidazo[4,5,1-jk][1]benzazepin-6-yl]amino}butyl]-N-(2,2,2-trifluoroethyl)benzamide] |
| 37.1 | 5.5 | CC(CCc1cccc(C(F)(F)F)c1)N[C@@H]1CCn2c(=O)[nH]c3cccc(c32)[C@H]1O (mixture of isomers) [Example 30, 7-Hydroxy-6-({1-methyl-3-[3-(trifluoromethyl)phenyl]propyl}amino)-4,5,6,7-tetrahydroimidazo[4,5,1-jk][1]benzazepin-2(1H)-one] |
| 10.5 | 15.9 | CC(CCc1ccc(O)c(C(F)(F)F)c1)NC1CCn2c(=O)[nH]c3cccc(c32)C1O (single isomer, unassigned) [Example 60, 7-Hydroxy-6-({3-[4-hydroxy-3-(trifluoromethyl)phenyl]-1-methylpropyl}amino)-4,5,6,7-tetrahydroimidazo[4,5,1-jk][1]benzazepin-2(1H)-one] |
| 2.7 | 4.2 | CC(CCc1ccc(F)cc1O)N[C@@H]1CCn2c(=O)[nH]c3cccc(c32)[C@H]1O (mixture of isomers) [Example 24, 6-{[3-(4-Fluoro-2-hydroxyphenyl)-1-methylpropyl]amino}-7-hydroxy-4,5,6,7-tetrahydroimidazo[4,5,1-jk][1]benzazepin-2(1H)-one] |
| 1.4 | 2.2 | CC(CCc1ccc(O)c(F)c1)NC1CCn2c(=O)[nH]c3cccc(c32)C1O (single isomer, unassigned) [Example 36, 6-{[3-(3-Fluoro-4-hydroxyphenyl)-1-methylpropyl]amino}-7-hydroxy-4,5,6,7-tetrahydroimidazo[4,5,1-jk][1]benzazepin-2(1H)-one] |
| 2.7 | 6 | C[C@H](CCc1cccc(Cl)c1O)N[C@@H]1CCn2c(=O)[nH]c3cccc(c32)[C@H]1O (single isomer, unassigned) [Example 5c] |
| 2 | 0.9 | Cc1ccccc1CCC(C)N[C@@H]1CCn2c(=O)[nH]c3cccc(c32)[C@H]1O (mixture of isomers) [Example 13b, 7-hydroxy-6-{[1-Methyl-3-(2-methylphenyl)propyl]amino}-4,5,6,7-tetrahydroimidazo[4,5,1-jk][1]benzazepin-2(1H)-one] |
| 20.3 | 30.4 | COc1ccc(CCC(C)NC2CCn3c(=O)[nH]c4cccc(c43)C2O)cc1 (stereo not shown) [Example 34, 7-Hydroxy-6-{[3-(4-methoxyphenyl)-1-methylpropyl]amino}-4,5,6,7-tetrahydroimidazo[4,5,1-jk][1]benzazepin-2(1H)-one] |
| 7.5 | 35.8 | COc1ccccc1CCC(C)N[C@@H]1CCn2c(=O)[nH]c3cccc(c32)[C@H]1O (mixture of isomers) [Example 20, 7-Hydroxy-6-{[3-(2-methoxyphenyl)-1-methylpropyl]amino}-4,5,6,7-tetrahydroimidazo[4,5,1-jk][1]benzazepin-2(1H)-one] |
| 29.6 | 10.7 | CC(CCc1ccc(C(F)(F)F)cc1)N[C@@H]1CCn2c(=O)[nH]c3cccc(c32)[C@H]1O (mixture of isomers) [Example 18, 7-Hydroxy-6-({1-methyl-3-[4-(trifluoromethyl)phenyl]propyl}amino)-4,5,6,7-tetrahydroimidazo[4,5,1-jk][1]benzazepin-2(1H)-one] |
| 221 | 48.7 | Cc1cc(CCC(C)NC2CCn3c(=O)[nH]c4cccc(c43)C2O)cc(C)c1O (stereo not shown) [Example 15, 7-Hydroxy-6-{[3-(4-hydroxy-3,5-dimethylphenyl)-1-methylpropyl]amino}-4,5,6,7-tetrahydroimidazo[4,5,1-jk][1]benzazepin-2(1H)-one] |
| 3.6 | 11 | CC(CCc1ccccc1NC(=O)C(F)(F)F)N[C@@H]1CCn2c(=O)[nH]c3cccc(c32)[C@H]1O (single isomer, unassigned) [Example 51, 2,2,2-Trifluoro-N-{2-[3-{[7-hydroxy-2-oxo-1,2,4,5,6,7-hexahydroimidazo[4,5,1-jk][1]benzazepin-6-yl]amino}butyl]phenyl}acetamide] |
| 1.2 | 2.3 | CC(CCc1cc(C#N)ccc1O)N[C@@H]1CCn2c(=O)[nH]c3cccc(c32)[C@H]1O (mixture of isomers) [Example 22, 4-Hydroxy-3-(3-{[7-hydroxy-2-oxo-1,2,4,5,6,7-hexahydroimidazo[4,5,1-jk][1]benzazepin-6-yl]amino}butyl)benzonitrile] |
| 4.3 | 2.7 | CC(CCc1c(Cl)ccc(O)c1Cl)NC1CCn2c(=O)[nH]c3cccc(c32)C1O (single isomer, unassigned) [Example 55] |
| 307 | 473 | CC(CCc1cccc(Cl)c1O)N[C@@H]1CCn2c(=O)[nH]c3cccc(c32)[C@H]1O (single isomer, unassigned) [Example 5a, 6-{[3-(3-Chloro-2-hydroxyphenyl)-1-methylpropyl]amino}-7-hydroxy-4,5,6,7-tetrahydroimidazo[4,5,1-jk][1]benzazepin-2(1H)-one] |
| 1.6 | 2.9 | CC(CCc1cccc(Cl)c1O)N[C@@H]1CCn2c(=O)[nH]c3cccc(c32)[C@H]1O (single isomer, unassigned) [Example 5b, 6-{[3-(3-Chloro-2-hydroxyphenyl)-1-methylpropyl]amino}-7-hydroxy-4,5,6,7-tetrahydroimidazo[4,5,1-jk][1]benzazepin-2(1H)-one] |
| 55 | 80 | CC(CCc1cccc(F)c1O)N[C@@H]1CCn2c(=O)[nH]c3cccc(c32)[C@H]1O (mixture of isomers) [Example 28b, 6-{[3-(3-Fluoro-2-hydroxyphenyl)-1-methylpropyl]amino}-7-hydroxy-4,5,6,7-tetrahydroimidazo[4,5,1-jk][1]benzazepin-2(1H)-one] |
| 0.8 | 1.7 | CC(CCc1cc(F)cc(F)c1O)N[C@@H]1CCn2c(=O)[nH]c3cccc(c32)[C@H]1O (mixture of isomers) [Example 10b, 6-{[3-(3,5-Difluoro-2-hydroxyphenyl)-1-methylpropyl]amino}-7-hydroxy-4,5,6,7-tetrahydroimidazo[4,5,1-jk][1]benzazepin-2(1H)-one] |
| 200 | 172 | COc1cccc(CCC(C)N[C@@H]2CCn3c(=O)[nH]c4cccc(c43)[C@H]2O)c1O (single isomer, unassigned) [Example 8a, 7-hydroxy-6-{[3-(2-hydroxy-3-methoxyphenyl)-1-methylpropyl]amino}-4,5,6,7-tetrahydroimidazo[4,5,1-jk][1]benzazepin-2(1H)-one] |

| Structure (SMILES) | EC50 [1] [nM] | EC50 [2] [nM] |
| --- | --- | --- |
| CC(CCc1ccccc1O)N[C@@H]1CCn2c(=O)[nH]c3cccc(c32)[C@H]1O (mixture of isomers) [Example 6b, 7-Hydroxy-6-{[3-(2-hydroxyphenyl)-1-methylpropyl]amino}-4,5,6,7-tetrahydroimidazo[4,5,1-jk][1]benzazepin-2(1H)-one] | 2 | 1.4 |
| CC(CCc1ccccc1O)N[C@@H]1CCn2c(=O)[nH]c3cccc(c32)[C@H]1O (single isomer, unassigned) [Example 48, Hydrochloride salt of 7-hydroxy-6-{[3-(2-hydroxyphenyl)-1-methylpropyl]amino}-4,5,6,7-tetrahydroimidazo[4,5,1-jk][1]benzazepin-2(1H)-one] | 1 | 1.9 |
| CC(CCc1ccccc1O)N[C@@H]1CCn2c(=O)[nH]c3cccc(c32)[C@H]1O (mixture of isomers) [Example 6a, 7-Hydroxy-6-{[3-(2-hydroxyphenyl)-1-methylpropyl]amino}-4,5,6,7-tetrahydroimidazo[4,5,1-jk][1]benzazepin-2(1H)-one] | 1.5 | 1.5 |
| CC(CCc1ccccc1O)N[C@@H]1CCn2c(=O)[nH]c3cccc(c32)[C@H]1O (single isomer, unassigned) [Example 6d, 7-Hydroxy-6-{[3-(2-hydroxyphenyl)-1-methylpropyl]amino}-4,5,6,7-tetrahydroimidazo[4,5,1-jk][1]benzazepin-2(1H)-one] | 315 | 410 |

Source: patent US20080161288A1, “COMPOUNDS” (Pfizer Inc., priority 2006, published 2008)
